The values that follow come from article PMC8232238 (Cells, 2021).

Values joined by “and” are separate entries in the source; they are usually repeats but may differ in a detail not shown here. Identical values can stand only once. Like-named read-outs stand apart in the source and are kept apart here.

The nature of series [1]: UV/Vis absorption and fluorescence (photophysical properties) in DMSO. The series is classed as physicochemical. Particulars: for λem: excitation at 340 nm; for Φf (fluorescence quantum yield): relative to quinine sulfate, average of two samples. On the procedure:
S1.6 UV/Vis and Fluorescence Data
UV/Vis analysis was performed on a Cary Eclipse 300 UV/Vis spectrophotometer and fluorescence measurements performed on a Cary Eclipse Fluorescence spectrophotometer. All analysis was performed in 10 mm quartz cuvettes using AR grade DMSO. Relative quantum yields were obtained by comparison to quinine sulfate (фf = 0.58 in 0.1 M H2SO4) with absorbance of samples adjusted so that the absorbance at 340 nm was similar to the reference.
Emission spectra were obtained by excitation at 340 nm. Quantum yield was obtained by use of the following equation and are reported as the average of two samples with error <5%; […]
Where фref is the literature quantum yield of the reference, η is the refractive index of the solvent (H2O = 1.333, DMSO = 1.479) and Is is the integrated fluorescence intensity of the sample with Iref being the same of the reference.
Table S1 – Photophysical properties of selected compounds in DMSO […]
†Average of two samples, ±1%

A further series deals with T1, HDAC8 (Homo sapiens, UniProt Q9BY41).
T1 construct: purchased Reaction Biology corporation (contract assay)
T1 sequence (Q9BY41 1-377): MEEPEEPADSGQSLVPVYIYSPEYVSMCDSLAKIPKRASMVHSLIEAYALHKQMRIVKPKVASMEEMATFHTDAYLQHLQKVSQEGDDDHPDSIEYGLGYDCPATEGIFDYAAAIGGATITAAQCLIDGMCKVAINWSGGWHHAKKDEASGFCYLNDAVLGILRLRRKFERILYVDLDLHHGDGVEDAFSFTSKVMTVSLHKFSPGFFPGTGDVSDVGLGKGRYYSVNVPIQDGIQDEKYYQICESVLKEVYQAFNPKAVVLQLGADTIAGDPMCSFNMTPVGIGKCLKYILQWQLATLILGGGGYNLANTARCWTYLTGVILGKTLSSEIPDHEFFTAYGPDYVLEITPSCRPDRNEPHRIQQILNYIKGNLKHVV
In words: HDAC8 enzyme inhibition assay (single point and 10-dose IC50, Reaction Biology). The series is classed as biochemical. Particulars: for IC50: average of two independent measurements; for Selectivity factor (SF) HDAC8 against HDAC6: selectivity for HDAC6 over HDAC8. The method, then:
(§1) Against HDAC6, inhibition was determined using 0.01 µM of the inhibitor.
(§2) All IC50 measurements we performed by Reaction Biology corporation. Compounds were tested in
(§3) dilution starting at 1 uM. […]
(§4) (RHK(Ac)K(Ac)AMC). IC50 values were calculated using the GraphPad Prism 4 program based on a
(§5) sigmoidal dose-response equation. […]

Another series addresses T2, HDAC1 (Homo sapiens, UniProt Q13547).
T2 construct: purchased Reaction Biology corporation (contract assay)
Description: HDAC1 enzyme inhibition assay (single point and 10-dose IC50, Reaction Biology). The series is classed as biochemical. Particulars: for IC50: average of two independent measurements; for Selectivity factor (SF) = HDAC1 IC50/HDAC6 IC50: selectivity for HDAC6 over HDAC1; for HDAC1 average enzyme isoform activity (percentage of full enzyme activity): single point, inhibitor 1.0 μM, average of two measurements, ±2%. The method, then: as §2, §3, §4, §5

The target of a further series is T3, HDAC3 (Homo sapiens, UniProt O15379).
T3 construct: purchased Reaction Biology corporation (contract assay)
T3 sequence (O15379 whole entry): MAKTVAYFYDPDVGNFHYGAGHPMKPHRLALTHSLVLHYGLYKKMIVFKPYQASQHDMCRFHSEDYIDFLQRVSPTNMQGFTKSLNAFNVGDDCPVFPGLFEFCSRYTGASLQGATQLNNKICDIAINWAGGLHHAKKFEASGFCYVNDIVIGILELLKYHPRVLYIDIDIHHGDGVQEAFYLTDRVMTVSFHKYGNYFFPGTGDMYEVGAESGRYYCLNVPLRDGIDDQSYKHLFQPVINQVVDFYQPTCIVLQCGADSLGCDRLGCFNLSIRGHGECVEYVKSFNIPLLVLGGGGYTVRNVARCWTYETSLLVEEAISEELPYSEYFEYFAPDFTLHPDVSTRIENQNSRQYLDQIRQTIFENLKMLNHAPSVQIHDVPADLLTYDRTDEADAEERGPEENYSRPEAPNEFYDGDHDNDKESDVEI
T3 sequence (Q9Y618 395-489 partner limits assumed): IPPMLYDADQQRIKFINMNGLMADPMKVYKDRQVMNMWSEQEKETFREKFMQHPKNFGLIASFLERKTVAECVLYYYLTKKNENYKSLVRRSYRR
Description: HDAC3 enzyme inhibition assay (single point and 10-dose IC50, Reaction Biology). The class given is biochemical. To be noted: for IC50: average of two independent measurements; for HDAC3 average enzyme isoform activity (percentage of full enzyme activity): single point, inhibitor 1.0 μM, average of two measurements, ±2%. On the procedure:
as §2, §3, §4, §5

The target in another series is T4, HDAC6 (Homo sapiens, UniProt Q9UBN7).
T4 construct: purchased Reaction Biology corporation (contract assay)
T4 sequence (Q9UBN7 1-1215): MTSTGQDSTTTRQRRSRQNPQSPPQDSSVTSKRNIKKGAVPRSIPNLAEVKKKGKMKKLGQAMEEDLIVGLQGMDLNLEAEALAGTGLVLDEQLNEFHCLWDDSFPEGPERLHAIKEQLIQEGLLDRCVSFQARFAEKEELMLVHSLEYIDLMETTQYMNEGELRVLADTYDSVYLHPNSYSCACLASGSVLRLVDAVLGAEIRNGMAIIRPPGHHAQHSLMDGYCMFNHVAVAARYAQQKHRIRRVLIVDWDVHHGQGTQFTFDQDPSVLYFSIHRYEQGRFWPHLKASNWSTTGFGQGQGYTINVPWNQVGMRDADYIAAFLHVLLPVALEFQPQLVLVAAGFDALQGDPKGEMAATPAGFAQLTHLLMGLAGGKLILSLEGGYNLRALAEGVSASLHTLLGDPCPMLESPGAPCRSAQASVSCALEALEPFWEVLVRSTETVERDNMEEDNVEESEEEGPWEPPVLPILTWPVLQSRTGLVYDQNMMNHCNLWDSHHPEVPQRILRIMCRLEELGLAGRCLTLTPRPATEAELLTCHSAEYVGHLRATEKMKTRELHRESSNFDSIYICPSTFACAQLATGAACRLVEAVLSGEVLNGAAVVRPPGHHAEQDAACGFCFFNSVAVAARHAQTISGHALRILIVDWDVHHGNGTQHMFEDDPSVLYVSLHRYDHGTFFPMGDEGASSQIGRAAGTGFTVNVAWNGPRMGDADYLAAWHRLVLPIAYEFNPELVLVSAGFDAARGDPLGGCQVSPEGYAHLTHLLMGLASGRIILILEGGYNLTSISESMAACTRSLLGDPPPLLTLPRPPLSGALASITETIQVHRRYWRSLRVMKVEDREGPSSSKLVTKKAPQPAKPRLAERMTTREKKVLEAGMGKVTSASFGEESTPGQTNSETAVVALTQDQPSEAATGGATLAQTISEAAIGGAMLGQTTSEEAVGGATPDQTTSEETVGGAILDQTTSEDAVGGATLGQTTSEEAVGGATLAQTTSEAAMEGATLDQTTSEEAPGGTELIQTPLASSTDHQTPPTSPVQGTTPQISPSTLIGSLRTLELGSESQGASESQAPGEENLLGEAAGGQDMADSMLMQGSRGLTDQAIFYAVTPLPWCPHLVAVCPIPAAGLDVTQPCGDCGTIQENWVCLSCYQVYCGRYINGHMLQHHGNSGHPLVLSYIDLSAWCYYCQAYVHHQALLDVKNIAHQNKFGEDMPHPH
In words: HDAC6 enzyme inhibition assay (single point and 10-dose IC50, Reaction Biology). The class given is biochemical. To be noted: for IC50: average of two independent measurements; for HDAC6 average enzyme isoform activity (percentage of full enzyme activity): single point, inhibitor 0.01 μM, average of two measurements, ±2%. The method, then:
as §1, §2, §3, §4, §5

The next series concerns the target T5, HDAC11 (Homo sapiens, UniProt Q96DB2).
T5 construct: purchased Reaction Biology corporation (contract assay)
T5 sequence (Q96DB2 1-347): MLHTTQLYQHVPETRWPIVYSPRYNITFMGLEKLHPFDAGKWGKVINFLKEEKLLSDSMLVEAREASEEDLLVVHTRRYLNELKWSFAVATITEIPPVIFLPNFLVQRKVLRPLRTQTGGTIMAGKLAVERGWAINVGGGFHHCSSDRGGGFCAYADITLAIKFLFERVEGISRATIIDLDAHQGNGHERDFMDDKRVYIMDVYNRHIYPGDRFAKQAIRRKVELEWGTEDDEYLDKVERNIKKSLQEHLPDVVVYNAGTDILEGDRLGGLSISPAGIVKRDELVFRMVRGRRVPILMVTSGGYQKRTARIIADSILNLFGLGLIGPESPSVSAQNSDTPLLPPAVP
Description: HDAC11 enzyme inhibition assay (single point and 10-dose IC50, Reaction Biology). The class given is biochemical. Particulars: for IC50: average of two independent measurements; for Selectivity factor (SF) HDAC11 against HDAC6: selectivity for HDAC6 over HDAC11; for HDAC11 average enzyme isoform activity (percentage of full enzyme activity): single point, inhibitor 1.0 μM, average of two measurements, ±2%. On the procedure:
as §1
All IC50 measurements we performed by Reaction Biology corporation. Compounds were tested in […]
dilution starting at 1 uM.
Substrate for HDAC11: 50 uM Fluorogenic HDAC Class2a Substrate […]
(Trifluoroacetyl Lysine).
(RHK(Ac)K(Ac)AMC). IC50 values were calculated using the GraphPad Prism 4 program based on a sigmoidal dose-response equation. […]

The mark [2] stands for this setting: single point, inhibitor 1.0 μM, average of two measurements, ±2%.

T2 sequence (Q13547 whole entry): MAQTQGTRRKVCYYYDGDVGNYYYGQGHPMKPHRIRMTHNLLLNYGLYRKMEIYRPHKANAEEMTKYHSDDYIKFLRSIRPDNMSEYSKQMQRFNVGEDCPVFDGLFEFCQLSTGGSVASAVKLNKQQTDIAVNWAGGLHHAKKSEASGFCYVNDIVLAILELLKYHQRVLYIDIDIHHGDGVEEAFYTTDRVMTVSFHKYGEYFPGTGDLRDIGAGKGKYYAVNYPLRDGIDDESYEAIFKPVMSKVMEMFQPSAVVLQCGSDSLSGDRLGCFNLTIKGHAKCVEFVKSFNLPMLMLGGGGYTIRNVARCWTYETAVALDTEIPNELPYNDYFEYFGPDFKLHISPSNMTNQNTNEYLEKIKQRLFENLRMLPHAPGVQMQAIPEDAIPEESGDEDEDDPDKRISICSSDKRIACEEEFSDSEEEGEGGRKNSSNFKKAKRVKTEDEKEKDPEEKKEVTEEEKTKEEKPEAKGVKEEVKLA

On to `CCC(=O)Nc1cc2c3c(cccc3c1)C(=O)N(CCOC)C2=O` [Compound 7], for which, in series [1], the “λabs (absorption maximum)” value is 341 nm, the “λabs (secondary absorption maximum)” value stood at 383 nm, the λem was 439 nm and the “Φf (fluorescence quantum yield)” value was 0.04.

Consider `O=C(CCCCCN1C(=O)c2cccc3cccc(c23)C1=O)NO` [scriptaid, reference compound], for which the “HDAC8 average enzyme isoform activity (percentage of full enzyme activity)” value at HDAC8 is 60.3%.

Take `COCCN1C(=O)c2cccc3cc(NC(=O)c4ccccc4)cc(c23)C1=O` [Compound 6]: in series [1], the “λabs (absorption maximum)” value is given as 344 nm, the “λabs (secondary absorption maximum)” value was found to be 385 nm, the λem stood at 435 nm and the “Φf (fluorescence quantum yield)” value turned out to be 0.02.

As to `COCCN1C(=O)c2cccc3cc(NC(=O)OC(C)(C)C)cc(c23)C1=O` [Compound 9], in series [1], the “λabs (absorption maximum)” value is reported as 345 nm, the “λabs (secondary absorption maximum)” value is recorded as 367 nm, the λem is 442 nm and the “Φf (fluorescence quantum yield)” value is reported as 0.06.

For `COCCN1C(=O)c2cccc3cc(N4CCCC4=O)cc(c23)C1=O` [Compound 8], in series [1], the “λabs (absorption maximum)” value turned out to be 343 nm, the “λabs (secondary absorption maximum)” value worked out at 383 nm, the λem was 441 nm and the “Φf (fluorescence quantum yield)” value is recorded as 0.02.

By IC50 is commonly meant the point on the concentration scale where inhibition reaches its midpoint. Take `CCC(=O)Nc1cc2c3c(cccc3c1)C(=O)N(CCCCCC(=O)NO)C2=O` [KNH021]: on HDAC1, the IC50 turned out to be 0.037 ± 0.002 µM, the “Selectivity factor (SF) = HDAC1 IC50/HDAC6 IC50” value was 38 and the “HDAC1 average enzyme isoform activity (percentage of full enzyme activity)” value was 29.8%. Besides, on HDAC3, 0.032 ± 0.001 µM corresponded to half-maximal inhibition (IC50) and the “HDAC3 average enzyme isoform activity (percentage of full enzyme activity)” value came out at 20.1%. On HDAC6, the 50% inhibitory concentration (IC50) was 0.00097 ± 5e-05 µM and the “HDAC6 average enzyme isoform activity (percentage of full enzyme activity)” value amounted to 20.3%. For the same compound, at HDAC8, half-maximal inhibition (IC50) was put at 0.95 ± 0.05 µM and the “Selectivity factor (SF) HDAC8 against HDAC6” value was determined as 981. Besides, the “HDAC8 average enzyme isoform activity (percentage of full enzyme activity)” value at HDAC8 (setting [2]) turned out to be 50.4%. Besides, on HDAC11, inhibition was half-maximal at 2.16 ± 0.14 µM (IC50), the “Selectivity factor (SF) HDAC11 against HDAC6” value was determined as 2234 and the “HDAC11 average enzyme isoform activity (percentage of full enzyme activity)” value is recorded as 90.7%. Also, in series [1], the “λabs (absorption maximum)” value is recorded as 341 nm, the “λabs (secondary absorption maximum)” value is 383 nm, the λem is given as 435 nm and the “Φf (fluorescence quantum yield)” value stood at 0.04.

Turning to `COc1ccc(C(=O)Nc2cc3c4c(cccc4c2)C(=O)N(CCCCCC(=O)NO)C3=O)cc1` [KNH020], on HDAC1, the 50% inhibitory concentration (IC50) was found to be 0.087 ± 0.007 µM, the “Selectivity factor (SF) = HDAC1 IC50/HDAC6 IC50” value stood at 150 and the “HDAC1 average enzyme isoform activity (percentage of full enzyme activity)” value came to 38.7%. In addition, on HDAC3, 0.027 ± 0.003 µM corresponded to half-maximal inhibition (IC50) and the “HDAC3 average enzyme isoform activity (percentage of full enzyme activity)” value is given as 17.2%. The “Selectivity factor (SF) HDAC3 against HDAC6” value at HDAC3 (selectivity for HDAC6 over HDAC3) is 47. At HDAC6, 0.00058 ± 2e-06 µM corresponded to half-maximal inhibition (IC50) and the “HDAC6 average enzyme isoform activity (percentage of full enzyme activity)” value was determined as 19.7%. On HDAC8, the IC50 turned out to be 4.33 ± 0.39 µM and the “Selectivity factor (SF) HDAC8 against HDAC6” value was 7466. The “HDAC8 average enzyme isoform activity (percentage of full enzyme activity)” value at HDAC8 (setting [2]) is 93.4%. At HDAC11, it took 0.24 ± 0.011 µM to reach half-maximal inhibition (IC50), the “Selectivity factor (SF) HDAC11 against HDAC6” value is listed as 413 and the “HDAC11 average enzyme isoform activity (percentage of full enzyme activity)” value came to 58.7%. Further, in series [1], the “λabs (absorption maximum)” value amounted to 343 nm; the “λabs (secondary absorption maximum)” value was 386 nm and 374 nm; the λem turned out to be 437 nm; the “Φf (fluorescence quantum yield)” value is reported as 0.05.
